Reference: ChEMBL document CHEMBL3301546, “MMV Malaria Box yeast growth screening”

Experiments:
Type in all cases: functional
Saccharomyces cerevisiae [1] = assay: (§1) MMV: Growth assays were conducted using the prototrophic S. cerevisiae strain JHY222. Each MMV compound (0.1 mM) was tested in rich media containing dextrose as a carbon source (Yeast Extract, Peptone, Dextrose; YPD). The growth rate in the presence of each MMV compound was calculated as follows: (i) the first 10 OD readings were averaged and subtracted from all OD readings of the corresponding curve to set the baseline of the growth curve to zero, and (ii) the area under the curve (AUC) was then calculated as the sum of all OD readings. […] A relative growth value was calculated as follows: AUC(DRUG) - AUC(DMSO)/AUC(DMSO); where AUC(DMSO) represents growth measured in a DMSO control well that was on the same microtiter plate of the drug-treated culture.
Saccharomyces cerevisiae [2] = assay: as §1, with “minimal” for “rich”, “Nitrogen Base,” for “Extract, Peptone,”, “YNBD).” for “YPD).”
Saccharomyces cerevisiae [3] = assay: as §1, with “minimal” for “rich”, “ethanol and glycerol” for “dextrose”, “as” for “as a”, “sources” for “source”, “Nitrogen Base, Ethanol, Glycerol; YNBEG).” for “Extract, Peptone, Dextrose; YPD).”

CCn1nc(-c2ccc(C(=O)OC)cc2)nc2c(=O)n(C)c(=O)nc1-2
Relative Growth (Saccharomyces cerevisiae [1]): 0.0103
Relative Growth (Saccharomyces cerevisiae [2]): 0.0968
Relative Growth (Saccharomyces cerevisiae [3]): 0.1078

COCCNC(=O)c1ccc(OC2CCN(Cc3ccc(F)c(F)c3)CC2)c(Cl)c1
Relative Growth (Saccharomyces cerevisiae [1]): 0.1615
Relative Growth (Saccharomyces cerevisiae [2]): -0.0136
Relative Growth (Saccharomyces cerevisiae [3]): 0.0235

CC(C)OCc1cc(CN2CCN(c3cccc(Cl)c3)CC2)c(O)c2ncccc12
Relative Growth (Saccharomyces cerevisiae [1]): -1.0115
Relative Growth (Saccharomyces cerevisiae [2]): -0.1654
Relative Growth (Saccharomyces cerevisiae [3]): -0.1438

CCCCOC(=O)c1ccc(Nc2cc(C)nc3ccc(OC)cc23)cc1
Relative Growth (Saccharomyces cerevisiae [1]): -0.1158
Relative Growth (Saccharomyces cerevisiae [2]): -0.0919
Relative Growth (Saccharomyces cerevisiae [3]): -0.3112

COc1ccc(C(=O)C(CCC(CNC(C)(C)C)C(=O)c2ccc(OC)cc2)CNC(C)(C)C)cc1 (stereo not given)
Relative Growth (Saccharomyces cerevisiae [1]): -0.0341
Relative Growth (Saccharomyces cerevisiae [2]): -0.0754
Relative Growth (Saccharomyces cerevisiae [3]): -0.4347

COc1ccc(/C=C2/SC(=Nc3ccccc3)NC2=O)cc1
Relative Growth (Saccharomyces cerevisiae [1]): -0.1491
Relative Growth (Saccharomyces cerevisiae [2]): -0.223
Relative Growth (Saccharomyces cerevisiae [3]): -0.9641

Cc1ccc(Cn2c(N3CCC(C(=O)NCc4cccs4)CC3)nc3ccccc32)cc1
Relative Growth (Saccharomyces cerevisiae [1]): -0.105
Relative Growth (Saccharomyces cerevisiae [2]): -0.0044
Relative Growth (Saccharomyces cerevisiae [3]): -0.1621

CCOC(=O)c1cn(CC)c2cc(N3CCCCC3)c(F)cc2c1=O
Relative Growth (Saccharomyces cerevisiae [1]): -0.0482
Relative Growth (Saccharomyces cerevisiae [2]): -0.2997
Relative Growth (Saccharomyces cerevisiae [3]): -0.2149

COc1ccccc1N1CCN(C(CNS(=O)(=O)c2ccc(Cl)cc2)c2cccnc2)CC1 (stereo not given)
Relative Growth (Saccharomyces cerevisiae [1]): -0.173
Relative Growth (Saccharomyces cerevisiae [2]): -0.1378
Relative Growth (Saccharomyces cerevisiae [3]): -0.6721

CCc1ccc(Nc2cc(C)nc3nc(C)nn23)cc1
Relative Growth (Saccharomyces cerevisiae [1]): 0.0328
Relative Growth (Saccharomyces cerevisiae [2]): -0.1477
Relative Growth (Saccharomyces cerevisiae [3]): -0.0737

COc1cc2c3cc1Oc1c(OC)c(OC)cc4c1C(Cc1ccc(O)c(c1)Oc1ccc(cc1)CC3N(C)CC2)N(C)CC4.Cl (stereo not given)
Relative Growth (Saccharomyces cerevisiae [1]): -0.0961
Relative Growth (Saccharomyces cerevisiae [2]): 0.0109
Relative Growth (Saccharomyces cerevisiae [3]): -0.1414

Cc1ccc(OCCCCCCNCCO)c(C)c1
Relative Growth (Saccharomyces cerevisiae [1]): -0.034
Relative Growth (Saccharomyces cerevisiae [2]): 0.026
Relative Growth (Saccharomyces cerevisiae [3]): -0.0581

CNCCCNc1ccnc2cc(Cl)ccc12
Relative Growth (Saccharomyces cerevisiae [1]): 0.1016
Relative Growth (Saccharomyces cerevisiae [2]): 0.075
Relative Growth (Saccharomyces cerevisiae [3]): 0.188

Oc1c(CN2CCN(c3ccccc3F)CC2)cc(Br)c2cccnc12
Relative Growth (Saccharomyces cerevisiae [1]): -0.0397
Relative Growth (Saccharomyces cerevisiae [2]): 0.0189
Relative Growth (Saccharomyces cerevisiae [3]): 0.0379

Cc1ccc2nc(C)cc(Nc3cccc(C(F)(F)F)c3)c2c1.Cl
Relative Growth (Saccharomyces cerevisiae [1]): -0.0219
Relative Growth (Saccharomyces cerevisiae [2]): -0.0826
Relative Growth (Saccharomyces cerevisiae [3]): -0.1571

COc1cccc(C=Cc2nc(=O)c3ccccc3o2)c1OC
Relative Growth (Saccharomyces cerevisiae [1]): -0.0201
Relative Growth (Saccharomyces cerevisiae [2]): 0.0576
Relative Growth (Saccharomyces cerevisiae [3]): -0.4404

Cc1ccc(-c2cc(C(=O)Nc3ccc(S(=O)(=O)N4CCCCC4)cc3)[nH]n2)c(O)c1
Relative Growth (Saccharomyces cerevisiae [1]): -0.07
Relative Growth (Saccharomyces cerevisiae [2]): -0.0309
Relative Growth (Saccharomyces cerevisiae [3]): -0.0163

COc1ccc2nc(C)cc(Nc3cccc(O)c3)c2c1.Cl
Relative Growth (Saccharomyces cerevisiae [1]): -0.0539
Relative Growth (Saccharomyces cerevisiae [2]): 0.0539
Relative Growth (Saccharomyces cerevisiae [3]): 0.0008

CCOC(=O)C1=C(C)N=c2sc(=Cc3cc(Cl)ccc3O)c(=O)n2C1c1ccc(OC)cc1 (stereo not given)
Relative Growth (Saccharomyces cerevisiae [1]): -0.1268
Relative Growth (Saccharomyces cerevisiae [2]): 0.1077
Relative Growth (Saccharomyces cerevisiae [3]): 0.0816

CC1(c2ccccc2)Nc2ccccc2-c2nc3ccccc3n21 (stereo not given)
Relative Growth (Saccharomyces cerevisiae [1]): -0.9988
Relative Growth (Saccharomyces cerevisiae [2]): -0.2999
Relative Growth (Saccharomyces cerevisiae [3]): -0.5975

COc1cccc(C(=O)NC(c2ccc(C)cc2)c2cc(Cl)c3cccnc3c2O)c1 (stereo not given)
Relative Growth (Saccharomyces cerevisiae [1]): -0.0292
Relative Growth (Saccharomyces cerevisiae [2]): 0.017
Relative Growth (Saccharomyces cerevisiae [3]): 0.1449

Oc1ccc(C(=C(Cl)Cl)c2ccc(O)cc2)cc1
Relative Growth (Saccharomyces cerevisiae [1]): 0.0294
Relative Growth (Saccharomyces cerevisiae [2]): -0.227
Relative Growth (Saccharomyces cerevisiae [3]): -0.5689

COc1cc(SC)ccc1C(=O)N1CCCC(C)C1 (stereo not given)
Relative Growth (Saccharomyces cerevisiae [1]): -0.0213
Relative Growth (Saccharomyces cerevisiae [2]): 0.0716
Relative Growth (Saccharomyces cerevisiae [3]): -0.0182

CCCCc1ccc(NS(=O)(=O)c2cc3c4c(c2)CCN4C(=O)CC3)cc1
Relative Growth (Saccharomyces cerevisiae [1]): -0.0323
Relative Growth (Saccharomyces cerevisiae [2]): -0.0346
Relative Growth (Saccharomyces cerevisiae [3]): 0.0701

CSC1=NC(=Nc2c(C)cccc2C)C2(CCC(C(C)(C)C)CC2)N1c1ccc(Cl)cc1 (stereo not given)
Relative Growth (Saccharomyces cerevisiae [1]): -0.0962
Relative Growth (Saccharomyces cerevisiae [2]): 0.0233
Relative Growth (Saccharomyces cerevisiae [3]): 0.0048

COc1ccc2c(c1)OC(O)(C(F)(F)C(F)(F)F)CC2=O (stereo not given)
Relative Growth (Saccharomyces cerevisiae [1]): 0.0151
Relative Growth (Saccharomyces cerevisiae [2]): 0.1423
Relative Growth (Saccharomyces cerevisiae [3]): -0.103

CC(C)CNC(=O)c1c(N)n(CCc2ccccc2F)c2nc3ccccc3nc12
Relative Growth (Saccharomyces cerevisiae [1]): 0.0072
Relative Growth (Saccharomyces cerevisiae [2]): 0.1192
Relative Growth (Saccharomyces cerevisiae [3]): -0.2111

CCC(O)c1ccc(Br)cc1NC(=O)c1cccc(Cl)c1 (stereo not given)
Relative Growth (Saccharomyces cerevisiae [1]): 0.0228
Relative Growth (Saccharomyces cerevisiae [2]): 0.0885
Relative Growth (Saccharomyces cerevisiae [3]): 0.102

CCN(CC)c1cc(C)c2cc(NC(=O)c3cccc(OC)c3)ccc2n1
Relative Growth (Saccharomyces cerevisiae [1]): 0.0048
Relative Growth (Saccharomyces cerevisiae [2]): -0.0149
Relative Growth (Saccharomyces cerevisiae [3]): 0.0148

CCOc1ccc(/C=C/c2nc(=O)c3ccccc3o2)cc1
Relative Growth (Saccharomyces cerevisiae [1]): 0.0045
Relative Growth (Saccharomyces cerevisiae [2]): 0.0067
Relative Growth (Saccharomyces cerevisiae [3]): 0.0498

Fc1ccc2[nH]c3c(NCCCN4CCOCC4)ncnc3c2c1
Relative Growth (Saccharomyces cerevisiae [1]): -0.0189
Relative Growth (Saccharomyces cerevisiae [2]): 0.0125
Relative Growth (Saccharomyces cerevisiae [3]): 0.0735

O=c1nc(C=Cc2ccc(Cl)cc2)oc2ccccc12
Relative Growth (Saccharomyces cerevisiae [1]): 0.0204
Relative Growth (Saccharomyces cerevisiae [2]): 0.0988
Relative Growth (Saccharomyces cerevisiae [3]): 0.0415

c1ccc(/C2=N/c3ccccc3/N=C(/c3ccccc3)c3ccccc32)cc1
Relative Growth (Saccharomyces cerevisiae [1]): -0.0437
Relative Growth (Saccharomyces cerevisiae [2]): -0.0429
Relative Growth (Saccharomyces cerevisiae [3]): -0.1082

O=C(Nc1ccc(CN2CCOCC2)cc1)c1ccc(-c2cc(Cl)ccc2Cl)o1
Relative Growth (Saccharomyces cerevisiae [1]): 0.0021
Relative Growth (Saccharomyces cerevisiae [2]): 0.0214
Relative Growth (Saccharomyces cerevisiae [3]): -0.173

CN(C)CCCNCc1ccc(-c2ccc(F)c(Cl)c2)o1.Cl
Relative Growth (Saccharomyces cerevisiae [1]): -0.0396
Relative Growth (Saccharomyces cerevisiae [2]): 0.0576
Relative Growth (Saccharomyces cerevisiae [3]): 0.0645
